Test [1] addresses T1, Adrenergic receptor alpha-2 (Homo sapiens, UniProt P08913+P18825+P18089).
T1 sequence (P08913 whole entry): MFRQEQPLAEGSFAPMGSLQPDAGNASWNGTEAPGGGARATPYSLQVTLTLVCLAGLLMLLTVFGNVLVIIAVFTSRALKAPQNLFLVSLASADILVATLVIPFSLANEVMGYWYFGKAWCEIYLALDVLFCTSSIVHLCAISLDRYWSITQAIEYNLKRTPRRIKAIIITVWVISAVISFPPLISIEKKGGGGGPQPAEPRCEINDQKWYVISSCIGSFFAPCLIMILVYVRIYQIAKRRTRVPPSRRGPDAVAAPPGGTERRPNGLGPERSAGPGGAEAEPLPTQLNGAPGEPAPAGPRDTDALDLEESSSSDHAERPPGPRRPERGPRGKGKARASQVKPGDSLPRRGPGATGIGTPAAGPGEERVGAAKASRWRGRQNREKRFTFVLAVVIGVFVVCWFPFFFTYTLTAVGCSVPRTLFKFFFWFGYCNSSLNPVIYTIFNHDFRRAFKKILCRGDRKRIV
T1 sequence (P18825 whole entry): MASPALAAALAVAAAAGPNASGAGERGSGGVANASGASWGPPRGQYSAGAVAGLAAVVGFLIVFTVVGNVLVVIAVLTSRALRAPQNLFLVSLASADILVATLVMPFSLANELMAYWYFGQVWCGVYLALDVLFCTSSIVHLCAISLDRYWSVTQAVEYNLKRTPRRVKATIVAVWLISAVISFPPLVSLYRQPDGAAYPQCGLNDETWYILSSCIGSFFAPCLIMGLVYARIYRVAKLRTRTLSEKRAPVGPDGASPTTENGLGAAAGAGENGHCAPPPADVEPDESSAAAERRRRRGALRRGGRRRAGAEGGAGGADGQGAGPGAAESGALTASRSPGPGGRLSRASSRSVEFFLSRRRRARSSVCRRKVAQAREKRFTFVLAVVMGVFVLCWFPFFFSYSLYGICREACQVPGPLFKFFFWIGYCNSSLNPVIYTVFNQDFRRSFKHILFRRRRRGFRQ
T1 sequence (P18089 whole entry): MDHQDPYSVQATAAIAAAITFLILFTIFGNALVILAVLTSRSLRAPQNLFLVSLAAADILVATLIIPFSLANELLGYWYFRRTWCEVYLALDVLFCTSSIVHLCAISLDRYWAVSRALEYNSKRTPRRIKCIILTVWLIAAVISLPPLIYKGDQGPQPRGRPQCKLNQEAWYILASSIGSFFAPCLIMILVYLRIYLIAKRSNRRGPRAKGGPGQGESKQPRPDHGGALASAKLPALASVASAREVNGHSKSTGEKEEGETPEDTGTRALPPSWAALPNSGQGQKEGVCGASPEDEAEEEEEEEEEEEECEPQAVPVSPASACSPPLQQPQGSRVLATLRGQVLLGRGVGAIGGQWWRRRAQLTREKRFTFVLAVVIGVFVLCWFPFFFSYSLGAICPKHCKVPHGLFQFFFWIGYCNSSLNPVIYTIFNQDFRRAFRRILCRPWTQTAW
Nature of the test: Displacement of [3H]-RX821002 from adrenergic alpha 2 receptor in human brain membrane by liquid scintillation spectroscopy. The class given is cell membranes.

For test [2], the target named is T2, Adrenergic receptor alpha-2 (Homo sapiens) (UniProt P08913+P18825+P18089). Nature of the test: Agonist activity at adrenergic alpha 2 receptor in human brain membrane assessed as stimulation of [35S]GTPgammaS binding at 10 uM in presence of adrenergic alpha 2 receptor antagonist RX821002 by liquid scintillation spectroscopy. Particulars: filed as agonist. The class given is functional, cell membranes. (Binding of GTPγS marks nucleotide exchange on a G protein.)

In test [3] the target is T1, Adrenergic receptor alpha-2. Nature of the test: Agonist activity at adrenergic alpha 2 receptor in human brain membrane assessed as stimulation of [35S]GTPgammaS binding in presence of adrenergic alpha 2 receptor antagonist RX821002 by liquid scintillation spectroscopy. Type of test: functional, cell membranes.
Test [4] addresses T2, Adrenergic receptor alpha-2 (Homo sapiens). Nature of the test: Agonist activity at adrenergic alpha 2 receptor in human brain membrane assessed as stimulation of [35S]GTPgammaS binding at 10 uM by liquid scintillation spectroscopy relative to control. The class given is functional, cell membranes. Conditions: filed as agonist.
Test [5] shares this target. Nature of the test: Antagonist activity at adrenergic alpha 2 receptor in human brain membrane assessed as inhibition of UK14304-induced stimulation of [35S]GTPgammaS binding at 10 uM by liquid scintillation spectroscopy (reference value: 153 +/- 4%). Type of test: functional, cell membranes. Particulars: filed as antagonist.
For test [6], the target named is T1, Adrenergic receptor alpha-2. Nature of the test: Antagonist activity at adrenergic alpha 2 receptor in human brain membrane assessed as inhibition of UK14304-induced stimulation of [35S]GTPgammaS binding by liquid scintillation spectroscopy (reference value: 1.77 +/- […]). Type of test: functional, cell membranes.
The target is the same in test [7]. Nature of the test: Agonist activity at adrenergic alpha 2 receptor in human brain membrane assessed as stimulation of [35S]GTPgammaS binding by liquid scintillation spectroscopy. Type of test: functional, cell membranes.

One may read the Ki as the dissociation constant of the complex between target and ligand, obtained from inhibition or displacement. A lower Ki goes with a stronger hold on the target. On to `CCCNC(=N)Nc1ccc(CCc2ccc(NC3=NCCN3)cc2)cc1.Cl.Cl`, for which the Ki in test [1] turned out to be 1.745 µM. This counts as single-digit micromolar.
As for `Cl.Cl.N=C(N)Nc1ccc(CCc2ccc(N=C3NCCN3)cc2)cc1`, in test [1], the inhibition constant Ki was 0.175 µM.
By Emax is commonly meant the maximal effect, on the per cent scale that the assay sets. Usually EC50 stands for the midpoint of the concentration-response curve. Turning to `CCCNC(=N)Nc1ccc(Cc2ccc(NC3=NCCN3)cc2)cc1.Cl.Cl`, the maximal effect (Emax) was 110% in test [2], 139% in test [4] and 171% in test [5]. Moreover, the EC50 was found to be 487 µM in test [3], 30 µM in test [6] and 46 µM in test [7]. This compound returned a Ki in test [1] of 0.00082 µM.
On to `Cl.Cl.N=C(N)Nc1ccc(Cc2ccc(N=C3NCCN3)cc2)cc1`, for which the Emax is 122% in test [2], 126% in test [4] and 110% in test [5]. The 50% effective concentration (EC50) in test [3] worked out at 64020 µM; in test [6] it was 20.2 µM; in test [7], 18 µM. The compound also yielded a Ki in test [1] of 0.0123 µM.
`Cl.Cl.N=C(N)Nc1ccc(Cc2ccc(NC3=NCCN3)nc2)cn1` showed an inhibitory constant (Ki) in test [1] of 0.138 µM.
Regarding `CCCNC(=N)Nc1ccc(Cc2ccc(NC(=N)NCCC)cc2)cc1.Cl.Cl`, the inhibitory constant (Ki) in test [1] amounted to 0.742 µM.
On to `CCCNC(=N)Nc1ccc(Cc2ccc(NC3=NCCN3)cc2)cn1.Cl.Cl`, for which, in test [5], the Emax amounted to 122%. In addition, in test [6], the 50% effective concentration (EC50) worked out at 30.8 µM. This compound came in with a Ki in test [1] of 0.0676 µM.
Taken in the same sequence, the figures for `CCCNC(=N)Nc1ccc(Cc2ccc(NC3=NCCN3)nc2)cn1.Cl.Cl` were 127%, 10.2 µM and 0.0899 µM.
Regarding `Cl.Cl.N=C(NCc1ccco1)Nc1ccc(Cc2ccc(NC3=NCCN3)cc2)cc1`, the maximum response (Emax) is 130% in test [2], 168% in test [4] and 155% in test [5]. For the same compound, the EC50 in test [3] amounted to 2356 µM; in test [6], 11.6 µM; in test [7], 534 µM. The Ki in test [1] amounted to 0.00177 µM.
Consider `CCCNC(=N)Nc1ccc(Cc2ccc(NC3=NCCN3)nc2)cc1.Cl.Cl`, for which the maximum response (Emax) in test [5] came out at 139%. In addition, the half-maximal effective concentration (EC50) in test [6] came out at 4.14 µM. The same compound had an inhibitory constant (Ki) in test [1] of 0.12 µM.
In test [1], `CN(C)c1ccc(/N=C(/N)NCc2ccco2)cc1` showed an inhibition constant Ki of 0.2318 µM.
On the same count and under the same terms, then `Cl.Cl.N=C(NCc1ccco1)Nc1ccc(Cc2ccc(NC3=NCCN3)nc2)cc1`, with 0.433 µM; and `Cl.Cl.N=C(NCc1ccco1)Nc1ccc(CCc2ccc(NC3=NCCN3)cc2)cc1`, with 0.418 µM.
Take `COC1(C2=NCCN2)COc2ccccc2O1` (stereo unspecified): the Emax in test [5] came out at 98%. In addition, the EC50 in test [6] was determined as 87.2 µM.
`Cl.Cl.N=C(NCc1ccco1)Nc1ccc(Cc2ccc(NC3=NCCN3)nc2)cn1` returned an inhibition constant Ki in test [1] of 0.263 µM.
For `N=C(N)Nc1ccc2c(c1)CCCC2`, the Ki in test [1] is 0.0776 µM.
As for `Cl.Cl.N=C(NCc1ccco1)Nc1ccc(Cc2ccc(NC3=NCCN3)cc2)cn1`, the figures for the Emax in test [2], in test [4] and in test [5] were 154%, 149% and 96%, respectively. Besides, the EC50 in test [3] was 252 µM; in test [6] it was 52.3 µM; in test [7], 194 µM. The compound further registered an inhibition constant Ki in test [1] of 0.0339 µM.
As for `Cl.Cl.N=C(NCCO)Nc1ccc(Cc2ccc(NC(=N)NCCO)cc2)cc1`, the Ki in test [1] was found to be 2.485 µM.
Regarding `Cl.Cl.N=C(N)Nc1ccc(Cc2ccc(NC3=NCCN3)cc2)cn1`, in test [5], the Emax is 140%. Moreover, the EC50 in test [6] turned out to be 39.9 µM. For the same compound, the inhibitory constant (Ki) in test [1] was 0.0868 µM.
`Cl.Cl.N=C(NCc1ccco1)Nc1ccc(Cc2ccc(NC(=N)NCc3ccco3)cc2)cc1`: in test [1], the inhibition constant (Ki) came to 0.355 µM.
As for `c1cc2c(cc1NC1=NCCN1)CCCC2`, in test [1], the Ki came to 0.0468 µM.
In test [1], `N=C(N)NC1C=C2CCCCC2=CN1` (stereo unspecified) gave a Ki of 0.1659 µM.
For `Cl.Cl.N=C(N)Nc1ccc(Cc2ccc(NC3=NCCN3)nc2)cc1`, in test [1], the Ki worked out at 0.674 µM.

The values above are taken from ChEMBL document CHEMBL4732085, “Di-aryl guanidinium derivatives: Towards improved α2-Adrenergic affinity and antagonist activity” (Eur J Med Chem, 2021).
